The NIST ThermoML archive (doi:10.1021/je200373q)
Numbers after ± are expanded uncertainties.

Experiment: xn = mol fraction of the nth substance listed
Details: 101 kPa, Liquid, Vibrating tube method

CCCCCCCCC [nonane] + CCCCCCCC
mass density [kg/m3]
Details	x2 = 0.1017	x2 = 0.2023	x2 = 0.3016	x2 = 0.4	x2 = 0.4987	x2 = 0.6006	x2 = 0.7002	x2 = 0.7986	x2 = 0.8989
273.15 K	731.51 ± 0.25	730.03 ± 0.25	728.78 ± 0.25	727.43 ± 0.25	725.78 ± 0.25	724.52 ± 0.25	722.97 ± 0.25	721.5 ± 0.25	719.99 ± 0.25
278.15 K	727.69 ± 0.25	726.2 ± 0.25	724.94 ± 0.25	723.57 ± 0.25	721.91 ± 0.25	720.65 ± 0.25	719.08 ± 0.25	717.59 ± 0.25	716.07 ± 0.25
283.15 K	723.84 ± 0.25	722.35 ± 0.25	721.07 ± 0.25	719.7 ± 0.25	718.01 ± 0.25	716.75 ± 0.25	715.16 ± 0.25	713.66 ± 0.25	712.12 ± 0.25
288.15 K	719.99 ± 0.25	718.48 ± 0.25	717.19 ± 0.25	715.8 ± 0.25	714.11 ± 0.25	712.83 ± 0.25	711.22 ± 0.25	709.71 ± 0.25	708.16 ± 0.25
293.15 K	716.12 ± 0.25	714.6 ± 0.25	713.29 ± 0.25	711.9 ± 0.25	710.18 ± 0.25	708.9 ± 0.25	707.27 ± 0.25	705.75 ± 0.25	704.18 ± 0.26
298.15 K	712.24 ± 0.25	710.7 ± 0.25	709.38 ± 0.25	707.97 ± 0.25	706.24 ± 0.25	704.95 ± 0.25	703.31 ± 0.26	701.76 ± 0.26	700.18 ± 0.26
303.15 K	708.34 ± 0.25	706.79 ± 0.25	705.46 ± 0.25	704.03 ± 0.26	702.28 ± 0.25	700.97 ± 0.25	699.32 ± 0.26	697.75 ± 0.26	696.15 ± 0.26
308.15 K	704.41 ± 0.25	702.86 ± 0.25	701.51 ± 0.25	700.07 ± 0.26	698.3 ± 0.26	696.98 ± 0.26	695.31 ± 0.26	693.73 ± 0.26	692.11 ± 0.26
313.15 K	700.48 ± 0.26	698.9 ± 0.25	697.54 ± 0.25	696.08 ± 0.26	694.3 ± 0.26	692.97 ± 0.26	691.28 ± 0.26	689.68 ± 0.26	688.04 ± 0.26
318.15 K	696.52 ± 0.26	694.93 ± 0.26	693.55 ± 0.26	692.08 ± 0.26	690.27 ± 0.26	688.92 ± 0.26	687.22 ± 0.26	685.6 ± 0.26	683.95 ± 0.26
323.15 K	692.53 ± 0.26	690.93 ± 0.26	689.53 ± 0.26	688.05 ± 0.26	686.22 ± 0.26	684.87 ± 0.26	683.14 ± 0.26	681.5 ± 0.26	679.83 ± 0.26
328.15 K	688.53 ± 0.26	686.91 ± 0.26	685.49 ± 0.26	683.99 ± 0.26	682.15 ± 0.26	680.78 ± 0.26	679.03 ± 0.26	677.37 ± 0.26	675.69 ± 0.26
333.15 K	684.5 ± 0.26	682.86 ± 0.26	681.43 ± 0.26	679.91 ± 0.26	678.05 ± 0.26	676.66 ± 0.26	674.89 ± 0.26	673.22 ± 0.26	671.51 ± 0.26
338.15 K	680.44 ± 0.26	678.78 ± 0.26	677.34 ± 0.26	675.8 ± 0.26	673.91 ± 0.26	672.5 ± 0.26	670.73 ± 0.26	669.03 ± 0.26	667.3 ± 0.26
343.15 K	676.36 ± 0.26	674.68 ± 0.26	673.22 ± 0.26	671.66 ± 0.26	669.75 ± 0.26	668.33 ± 0.26	666.53 ± 0.26	664.81 ± 0.26	663.06 ± 0.26
348.15 K	672.25 ± 0.26	670.55 ± 0.26	669.07 ± 0.26	667.5 ± 0.26	665.56 ± 0.26	664.12 ± 0.26	662.3 ± 0.26	660.56 ± 0.26	658.78 ± 0.26
353.15 K	668.11 ± 0.26	666.39 ± 0.26	664.88 ± 0.26	663.29 ± 0.26	661.33 ± 0.26	659.87 ± 0.26	658.02 ± 0.26	656.27 ± 0.26	654.47 ± 0.27
358.15 K	663.93 ± 0.26	662.18 ± 0.26	660.67 ± 0.26	659.05 ± 0.26	657.07 ± 0.26	655.6 ± 0.26	653.72 ± 0.27	651.94 ± 0.27	650.1 ± 0.27
363.15 K	659.72 ± 0.26	657.95 ± 0.26	656.41 ± 0.26	654.78 ± 0.27	652.77 ± 0.26	651.27 ± 0.26	649.36 ± 0.27	647.56 ± 0.27	645.72 ± 0.27
